Source: ChEMBL document CHEMBL1154179, “Analogs of a 4-aminothieno[2,3-d]pyrimidine lead (QB13) as modulators of P-glycoprotein substrate specificity” (Bioorg Med Chem Lett, 2009)
pEC50: −log10 of the molar value.

Tests used:
Type in all cases: cell-based
[1] = target: T1, ATP-dependent translocase ABCB1 (Homo sapiens, UniProt P08183); assay: Modulation of P-gp overexpressed in human A2780 cells assessed as daunorubicin accumulation preincubated 15 mins prior to daunorubicin addition measured after 180 mins by fluorescence assay
[2] = target: T1, ATP-dependent translocase ABCB1; assay: Modulation of P-gp overexpressed in human A2780 cells assessed as daunorubicin accumulation at 31.6 uM by MTT assay; conditions: a2780, 31.6 µM
[3] = target: T1, ATP-dependent translocase ABCB1; assay: Modulation of P-gp overexpressed in human A2780 cells assessed as vinblastin accumulation at 31.6 uM by MTT assay; conditions: a2780, 31.6 µM
[4] = target: T1, ATP-dependent translocase ABCB1; assay: Modulation of P-gp overexpressed in human A2780 cells assessed as colchicine accumulation at 31.6 uM by MTT assay; conditions: a2780, 31.6 µM

T1 sequence (P08183 whole entry): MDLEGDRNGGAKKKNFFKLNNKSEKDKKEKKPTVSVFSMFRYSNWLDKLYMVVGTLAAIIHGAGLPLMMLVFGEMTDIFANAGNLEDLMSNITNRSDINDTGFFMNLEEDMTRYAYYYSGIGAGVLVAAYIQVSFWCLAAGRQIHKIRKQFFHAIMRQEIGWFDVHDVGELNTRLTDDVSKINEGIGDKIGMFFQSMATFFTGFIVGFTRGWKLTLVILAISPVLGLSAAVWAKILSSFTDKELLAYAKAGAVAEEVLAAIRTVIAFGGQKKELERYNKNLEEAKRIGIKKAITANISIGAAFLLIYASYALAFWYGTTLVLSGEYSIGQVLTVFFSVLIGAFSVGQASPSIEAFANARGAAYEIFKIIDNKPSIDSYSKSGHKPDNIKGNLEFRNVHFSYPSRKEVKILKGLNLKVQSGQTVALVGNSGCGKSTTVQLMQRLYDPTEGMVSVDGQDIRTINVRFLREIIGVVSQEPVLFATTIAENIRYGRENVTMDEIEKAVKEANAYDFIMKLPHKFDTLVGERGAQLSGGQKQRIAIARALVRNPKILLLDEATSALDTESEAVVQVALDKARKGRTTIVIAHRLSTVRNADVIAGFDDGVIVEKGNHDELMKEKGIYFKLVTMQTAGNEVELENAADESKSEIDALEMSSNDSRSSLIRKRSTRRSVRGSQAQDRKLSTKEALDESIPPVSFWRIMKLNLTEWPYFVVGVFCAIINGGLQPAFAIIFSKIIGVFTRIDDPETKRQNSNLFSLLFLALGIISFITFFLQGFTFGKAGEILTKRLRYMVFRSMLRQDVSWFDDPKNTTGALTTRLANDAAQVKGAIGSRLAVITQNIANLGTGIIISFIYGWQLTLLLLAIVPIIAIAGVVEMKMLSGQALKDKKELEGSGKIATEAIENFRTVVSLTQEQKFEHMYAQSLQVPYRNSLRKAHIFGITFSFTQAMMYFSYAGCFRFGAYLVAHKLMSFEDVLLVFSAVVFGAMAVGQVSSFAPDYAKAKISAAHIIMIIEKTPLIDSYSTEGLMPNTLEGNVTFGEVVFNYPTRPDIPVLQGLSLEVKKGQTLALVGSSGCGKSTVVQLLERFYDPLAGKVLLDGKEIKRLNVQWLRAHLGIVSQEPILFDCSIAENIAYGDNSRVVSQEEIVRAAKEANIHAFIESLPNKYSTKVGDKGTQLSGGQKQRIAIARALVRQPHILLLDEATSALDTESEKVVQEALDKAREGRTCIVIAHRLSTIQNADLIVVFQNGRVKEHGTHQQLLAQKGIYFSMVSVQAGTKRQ

| SMILES | pEC50 [1] | Activity [2] | Activity [3] | Activity [4] |
| --- | --- | --- | --- | --- |
| CCOC(=O)CSc1nc(N)c2c3c(sc2n1)COCC3 | 5.81 |  |  |  |
| Nc1nc(SCCc2ccccc2)nc2sc3c(c12)CCCC3 | 5.99 | Active | Active | Not Active |
| CCOC(=O)CSc1nc(N)c2ccccc2n1 | 5.40 |  |  |  |
| Nc1nc(SCC(=O)c2ccccc2)nc2sc3c(c12)CCCC3 | 6.19 |  |  |  |
| CCSc1nc(N)c2c(C)c(C)sc2n1 | 5.34 |  |  |  |
| CCOC(=O)CSc1nc(N)c2c(C)c(C)sc2n1 | 6.05 | Active | Active | Not Active |
| Nc1nc(SCCO)nc2sc3c(c12)CCCC3 | 5.72 |  |  |  |
| CSc1nc(N)c2c(C)c(C)sc2n1 | 5.88 |  |  |  |
| CSc1nc(N)c2c3c(sc2n1)CCCC3 | 5.58 |  |  |  |
| Nc1nc(SCCc2ccccc2)nc2ccccc12 | 5.96 |  |  |  |
| Cc1sc2nc(SC(C(=O)O)c3ccccc3)nc(N)c2c1C (centres undefined) | < 4.00 |  |  |  |
| Cc1sc2nc(SCC(=O)c3ccccc3)nc(N)c2c1C | 5.88 |  |  |  |
| Nc1nc(SC(C(=O)O)c2ccccc2)nc2sc3c(c12)CCCC3 (centres undefined) | < 4.00 |  |  |  |
| CCOC(=O)CSc1nc(N)c2cc(OC)c(OC)cc2n1 | 5.92 |  |  |  |
| COc1cc2nc(SCCc3ccccc3)nc(N)c2cc1OC | 5.82 |  |  |  |
| CCOC(=O)CSc1nc(N)c2c3c(sc2n1)CCCC3 | 5.65 | Active | Active | Not Active |
| CCOC(=O)CSc1nc(N)c2c3c(sc2n1)CN(Cc1ccccc1)CC3 | 6.19 |  |  |  |
| CCOC(=O)CSc1nc(N)c2c3c(sc2n1)CCC3 | 5.38 |  |  |  |
| Nc1nc(SCCc2ccccc2)nc2sc3c(c12)CCOC3 | 6.25 |  |  |  |
| CCSc1nc(N)c2c3c(sc2n1)CCCC3 | 6.34 |  |  |  |
| Cc1sc2nc(SCCc3ccccc3)nc(N)c2c1C | 5.65 | Active | Active | Not Active |
| Nc1nc(SCCc2ccccc2)nc2sc3c(c12)CCC3 | 6.01 |  |  |  |
